Results as given in patent US20080039444A1, “COMPOUNDS” (GLAXO GROUP LIMITED, priority 2006, published 2008).

Legend:
human H1 receptor [1] = molecular target: T1, human H1 receptor (Homo sapiens, UniProt P35367); test: Histamine H1 functional antagonist assay (FLIPR): determination of functional pKi values; assay type: cell-based; conditions: CHO cells expressing human H1, histamine at EC80; read-out: average pKi (pKb) at H1 (converted)
T1 construct: expressed in transfected cells
Excerpt: H1 receptor cell line generation and FLIPR assay protocol
1. Generation of histamine H1 cell line
(§1) The human H1 receptor is cloned using known procedures described in the literature [Biochem. Biophys. Res. Commun., 201(2):894 (1994)]. Chinese hamster ovary (CHO) cells stably expressing the human H1 receptor are generated according to known procedures described in the literature [Br. J. Pharmacol., 117(6):1071 (1996)].
Histamine H1 functional antagonist assay: Determination of functional pKi values […]
10 μl of test compound, diluted to the required concentration in Tyrodes buffer+probenecid (or 10 μl Tyrodes buffer+probenecid as a control) is added to each well and the plate is incubated for 30 min at 37° C., 5% CO2. The plates are then placed into a FLIPR™ (Molecular Devices, UK) to monitor cell fluorescence (λex=488 nm, αEM=540 nm) in the manner described in Sullivan et al., (In: Lambert DG (ed.), Calcium Signaling Protocols, New Jersey: Humana Press, 1999, 125-136) before and after the addition of 10 μl histamine at a concentration that results in the final assay concentration of histamine being EC80.
Functional antagonism is indicated by a suppression of histamine induced increase in fluorescence, as measured by the FLIPR™ system (Molecular Devices). By means of concentration effect curves, functional affinities are determined using standard pharmacological mathematical analysis.

human H1 receptor [2] = molecular target: T1, human H1 receptor; test: Histamine H1 functional antagonist assay: antagonist duration after washout; assay type: cell-based; conditions: at one or more time points
Protocol: as §1
Histamine H1 functional antagonist assay: Determination of antagonist pA2 and duration
To determine the antagonist duration, cells are cultured overnight in non-coated black-walled clear bottom 96-well tissue culture plates, are washed with PBS and are incubated with a concentration of antagonist chosen to give an approximate DR in the range 30-300. Following the 30 min antagonist incubation period, the cells are washed two or three times with 200 μl of PBS and then 100 μl Tyrodes buffer is added to each well to initiate antagonist dissociation. Following incubation for predetermined times, typically 30-270 min at 37° C., the cells are then washed again with 200 μl PBS and are incubated with 100 μl Tyrodes buffer containing Brilliant Black, probenecid and Fluo-4 for 45 min at 37° C., as described above. After this period, the cells are challenged with histamine in the FLIPR™ as described above. The dose ratio at each time point is used to determine the fractional H1 receptor occupancy by the following equation: fractional receptor occupancy=(DR-1)/DR. The decrease in receptor occupancy over time approximates to a straight line and is analysed by linear regression. The slope of this straight line fit is used as an index of the dissociation rate of the antagonist. The dose ratios for antagonist treated cells and for antagonist treated and washed cells at each time point are used to calculate a relative dose ratio (rel DR) which is also used as an index of antagonist duration. Antagonists with long duration of action produce rel DR values close to 1, and antagonists with short duration of action produce rel DR values that approaches the dose ratio value obtained for antagonist treatment alone.

T1 sequence (P35367 whole entry): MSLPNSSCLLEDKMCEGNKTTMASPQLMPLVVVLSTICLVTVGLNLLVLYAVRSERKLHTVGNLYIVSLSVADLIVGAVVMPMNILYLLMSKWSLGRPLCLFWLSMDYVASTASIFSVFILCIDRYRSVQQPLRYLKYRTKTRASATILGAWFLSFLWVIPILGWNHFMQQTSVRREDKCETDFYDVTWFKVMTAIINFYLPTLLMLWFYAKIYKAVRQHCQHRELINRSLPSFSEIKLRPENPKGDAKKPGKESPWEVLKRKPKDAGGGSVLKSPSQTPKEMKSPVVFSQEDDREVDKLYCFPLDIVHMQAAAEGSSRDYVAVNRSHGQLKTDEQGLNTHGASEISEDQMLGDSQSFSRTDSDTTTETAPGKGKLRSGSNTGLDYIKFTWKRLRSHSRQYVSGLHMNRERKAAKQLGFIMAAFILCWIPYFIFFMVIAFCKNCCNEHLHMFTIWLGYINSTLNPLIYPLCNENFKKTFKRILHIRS

For `O=c1c2ccccc2c(Cc2ccc(Cl)cc2)nn1C[C@H]1CCCN1CCCCc1ccc(OCCCN2CCCCCC2)cc1` [Example 24, 4-[(4-Chlorophenyl)methyl]-2-({(2R)-1-[4-(4-{[3-(hexahydro-1H-azepin-1-yl)propyl]oxy}phenyl)butyl]-2-pyrrolidinyl}methyl)-1(2H)-phthalazinone free base], the Ki (human H1 receptor [1]) was ~15.8 nM and the “duration of action compared with azelastine in the histamine H1 functional antagonist assay” value (human H1 receptor [2]) was “significantly longer duration of action than azelastine”.
